The values below come from patent US20240050428A1 (Cullgen (Shanghai), Inc., priority 2020, published 2024).

Assay [1] deals with MOLM-13 cells. The experiment in a line: Cell viability assay (CellTiter-Glo) in MOLM-13 cells, alone or with gilteritinib. The conditions noted are these: Homo sapiens, MOLM-13, 72 h, MOLM-13 cells, three days, CellTiter-Glo. It is filed as cell-based.
Assay [2] has as its system MV4;11 cells. The experiment in a line: Cell viability assay (CellTiter-Glo) in MV4;11 cells, alone or with gilteritinib. It is filed as cell-based. The conditions noted are these: Homo sapiens, MV4-11, 72 h, MV4;11 cells, three days, CellTiter-Glo, read-out: MV4. (In ATP-based viability assays light output follows the ATP content of the culture.)
The mark [3] stands for this setting: compound alone (without gilteritinib), read-out: MOLM-13 IC50.
Setting [4] is: with gilteritinib 20 nM, read-out: MOLM-13 IC50 gilteritinib.
Setting [5] is: compound alone (without gilteritinib), 11 IC50.
Where [6] appears, read: with gilteritinib 10 nM, 11 IC50 gilteritinib.

Each structure is given as a SMILES string. Where two headings read alike, the source gives them in different places.

Consider `O=C1CCC(N2C(=O)c3ccc(NC[C@H]4C[C@H](n5cc(-c6nccc7cc[nH]c67)c(C6CC6)n5)C4)cc3C2=O)C(=O)N1` (stereo partly drawn) [GS-291, 5-(((trans-3-(3-Cyclopropyl-4-(1H-pyrrolo[2,3-c]pyridin-7-yl)-1H-pyrazol-1-yl)cyclobutyl)methyl)amino)-2-(2,6-dioxopiperidin-3-yl)isoindoline-1,3-dione], for which the IC50 in assay [1] (setting [3]) was above 1000 nM; in assay [1] (setting [4]) it was 10 to 100 nM; in assay [2] (setting [5]), above 1000 nM; in assay [2] (setting [6]), 10 to 100 nM.

With `CN1CC(Nc2cccc(-c3cn([C@H]4C[C@H](CNc5ccc6c(c5)C(=O)N(C5CCC(=O)NC5=O)C6=O)C4)nc3C3CC3)n2)C1` (stereo partly drawn) [GS-292, 5-(((trans-3-(3-Cyclopropyl-4-(6-((1-methylazetidin-3-yl)amino)pyridin-2-yl)-1H-pyrazol-1-yl)cyclobutyl)methyl)amino)-2-(2,6-dioxopiperidin-3-yl)isoindoline-1,3-dione], the IC50 in assay [1] (setting [3]), in assay [1] (setting [4]), in assay [2] (setting [5]) and in assay [2] (setting [6]) was above 1000 nM each time.

In the case of `O=C1CCC(N2C(=O)c3ccc(NC[C@H]4C[C@H](n5cc(-c6cc7cn[nH]c7cn6)c(C6CC6)n5)C4)cc3C2=O)C(=O)N1` (stereo partly drawn) [GS-293, 5-(((trans-3-(3-Cyclopropyl-4-(1H-pyrazolo[3,4-c]pyridin-5-yl)-1H-pyrazol-1-yl)cyclobutyl)methyl)amino)-2-(2,6-dioxopiperidin-3-yl)isoindoline-1,3-dione], the IC50 in assay [1] (setting [3]) is above 1000 nM; in assay [1] (setting [4]), 100 to 1000 nM; in assay [2] (setting [5]), 100 to 1000 nM; in assay [2] (setting [6]), 10 to 100 nM.

Consider `O=C1CCC(N2C(=O)c3ccc(NC[C@H]4C[C@H](n5cc(-c6cc(NC7CCNCC7)ccn6)c(C6CC6)n5)C4)cc3C2=O)C(=O)N1` (stereo partly drawn) [GS-294, 5-(((trans-3-(3-Cyclopropyl-4-(4-(piperidin-4-ylamino)pyridin-2-yl)-1H-pyrazol-1-yl)cyclobutyl)methyl)amino)-2-(2,6-dioxopiperidin-3-yl)isoindoline-1,3-dione], for which the IC50 in assay [1] (setting [3]), in assay [1] (setting [4]), in assay [2] (setting [5]) and in assay [2] (setting [6]) was above 1000 nM in each case.

Take `CN1CCC(Nc2ccnc(-c3cn([C@H]4C[C@H](CNc5ccc6c(c5)C(=O)N(C5CCC(=O)NC5=O)C6=O)C4)nc3C3CC3)c2)CC1` (stereo partly drawn) [GS-295, 5-(((trans-3-(3-Cyclopropyl-4-(4-((1-methylpiperidin-4-yl)amino)pyridin-2-yl)-1H-pyrazol-1-yl)cyclobutyl)methyl)amino)-2-(2,6-dioxopiperidin-3-yl)isoindoline-1,3-dione]: the IC50 in assay [1] (setting [3]), in assay [1] (setting [4]), in assay [2] (setting [5]) and in assay [2] (setting [6]) was above 1000 nM in each case.

For the compound `O=C1CCC(N2C(=O)c3ccc(NC[C@H]4C[C@H](n5cc(-c6ncccc6F)c(C6CC6)n5)C4)cc3C2=O)C(=O)N1` (stereo partly drawn) [GS-296, 5-(((trans-3-(3-Cyclopropyl-4-(3-fluoropyridin-2-yl)-1H-pyrazol-1-yl)cyclobutyl)methyl)amino)-2-(2,6-dioxopiperidin-3-yl)isoindoline-1,3-dione], the IC50 in assay [1] (setting [3]) lay in the range of 100 to 1000 nM; in assay [1] (setting [4]), 10 to 100 nM; in assay [2] (setting [5]), 10 to 100 nM; in assay [2] (setting [6]), 10 to 100 nM.

Take `O=C1CCC(N2C(=O)c3ccc(NC[C@H]4C[C@H](n5cc(-c6ccc(N7CCNCC7)cn6)c(C6CC6)n5)C4)cc3C2=O)C(=O)N1` (stereo partly drawn) [GS-297, 5-(((trans-3-(3-Cyclopropyl-4-(5-(piperazin-1-yl)pyridin-2-yl)-1H-pyrazol-1-yl)cyclobutyl)methyl)amino)-2-(2,6-dioxopiperidin-3-yl)isoindoline-1,3-dione]: the IC50 in assay [1] (setting [3]), in assay [1] (setting [4]), in assay [2] (setting [5]) and in assay [2] (setting [6]) was above 1000 nM throughout.

Take `CN1CCN(c2ccc(-c3cn([C@H]4C[C@H](CNc5ccc6c(c5)C(=O)N(C5CCC(=O)NC5=O)C6=O)C4)nc3C3CC3)nc2)CC1` (stereo partly drawn) [GS-298, 5-(((trans-3-(3-Cyclopropyl-4-(5-(4-methylpiperazin-1-yl)pyridin-2-yl)-1H-pyrazol-1-yl)cyclobutyl)methyl)amino)-2-(2,6-dioxopiperidin-3-yl)isoindoline-1,3-dione]: the IC50 in assay [1] (setting [3]), in assay [1] (setting [4]), in assay [2] (setting [5]) and in assay [2] (setting [6]) was above 1000 nM throughout.

As to `O=C1CCC(N2C(=O)c3ccc(NC[C@H]4C[C@H](n5cc(-c6nccc7[nH]ncc67)c(C6CC6)n5)C4)cc3C2=O)C(=O)N1` (stereo partly drawn) [GS-299, 5-(((trans-3-(3-Cyclopropyl-4-(1H-pyrazolo[4,3-c]pyridin-4-yl)-1H-pyrazol-1-yl)cyclobutyl)methyl)amino)-2-(2,6-dioxopiperidin-3-yl)isoindoline-1,3-dione], the IC50 was 10 to 100 nM in assay [1] (setting [3]), below 10 nM in assay [1] (setting [4]), below 10 nM in assay [2] (setting [5]) and below 10 nM in assay [2] (setting [6]).

With `CNc1ccc(-c2cn([C@H]3C[C@H](CNc4ccc5c(c4)C(=O)N(C4CCC(=O)NC4=O)C5=O)C3)nc2C2CC2)nc1` (stereo partly drawn) [GS-301, 5-(((trans-3-(3-Cyclopropyl-4-(5-(methylamino)pyridin-2-yl)-1H-pyrazol-1-yl)cyclobutyl)methyl)amino)-2-(2,6-dioxopiperidin-3-yl)isoindoline-1,3-dione], the IC50 in assay [1] (setting [3]) was above 1000 nM; in assay [1] (setting [4]) it was 100 to 1000 nM; in assay [2] (setting [5]), above 1000 nM; in assay [2] (setting [6]), 100 to 1000 nM.

In the case of `O=C1CCC(N2C(=O)c3ccc(NC[C@H]4C[C@H](n5cc(-c6ccc(NC7CCNCC7)cn6)c(C6CC6)n5)C4)cc3C2=O)C(=O)N1` (stereo partly drawn) [GS-302, 5-(((trans-3-(3-Cyclopropyl-4-(5-(piperidin-4-ylamino)pyridin-2-yl)-1H-pyrazol-1-yl)cyclobutyl)methyl)amino)-2-(2,6-dioxopiperidin-3-yl)isoindoline-1,3-dione], the IC50 in assay [1] (setting [3]), in assay [1] (setting [4]), in assay [2] (setting [5]) and in assay [2] (setting [6]) was above 1000 nM in each case.

On to `CN1CCC(Nc2ccc(-c3cn([C@H]4C[C@H](CNc5ccc6c(c5)C(=O)N(C5CCC(=O)NC5=O)C6=O)C4)nc3C3CC3)nc2)CC1` (stereo partly drawn) [GS-303, 5-(((trans-3-(3-Cyclopropyl-4-(5-((1-methylpiperidin-4-yl)amino)pyridin-2-yl)-1H-pyrazol-1-yl)cyclobutyl)methyl)amino)-2-(2,6-dioxopiperidin-3-yl)isoindoline-1,3-dione], for which the IC50 in assay [1] (setting [3]), in assay [1] (setting [4]), in assay [2] (setting [5]) and in assay [2] (setting [6]) was above 1000 nM each time.

Take `O=C1CCC(N2C(=O)c3ccc(NC[C@H]4C[C@H](n5cc(-c6ncccc6NC6CCNCC6)c(C6CC6)n5)C4)cc3C2=O)C(=O)N1` (stereo partly drawn) [GS-304, 5-(((trans-3-(3-Cyclopropyl-4-(3-(piperidin-4-ylamino)pyridin-2-yl)-1H-pyrazol-1-yl)cyclobutyl)methyl)amino)-2-(2,6-dioxopiperidin-3-yl)isoindoline-1,3-dione]: the IC50 in assay [1] (setting [3]), in assay [1] (setting [4]), in assay [2] (setting [5]) and in assay [2] (setting [6]) was above 1000 nM throughout.

As to `Cc1nc(-c2cn([C@H]3C[C@H](CNc4ccc5c(c4)C(=O)N(C4CCC(=O)NC4=O)C5=O)C3)nc2C2CC2)ccc1F` (stereo partly drawn) [GS-305, 5-(((trans-3-(3-Cyclopropyl-4-(5-fluoro-6-methylpyridin-2-yl)-1H-pyrazol-1-yl)cyclobutyl)methyl)amino)-2-(2,6-dioxopiperidin-3-yl)isoindoline-1,3-dione], the IC50 in assay [1] (setting [3]) is 10 to 100 nM; in assay [1] (setting [4]) it was below 10 nM; in assay [2] (setting [5]), 10 to 100 nM; in assay [2] (setting [6]) it was below 10 nM.

Turning to `CNc1ccnc(-c2cn([C@H]3C[C@H](CNc4ccc5c(c4)C(=O)N(C4CCC(=O)NC4=O)C5=O)C3)nc2C2CC2)c1` (stereo partly drawn) [GS-306, 5-(((trans-3-(3-Cyclopropyl-4-(4-(methylamino)pyridin-2-yl)-1H-pyrazol-1-yl)cyclobutyl)methyl)amino)-2-(2,6-dioxopiperidin-3-yl)isoindoline-1,3-dione], the IC50 in assay [1] (setting [3]), in assay [1] (setting [4]), in assay [2] (setting [5]) and in assay [2] (setting [6]) was above 1000 nM in each case.

As for `O=C1CCC(N2C(=O)c3ccc(NC[C@H]4C[C@H](n5cc(-c6cc7[nH]cnc7cn6)c(C6CC6)n5)C4)cc3C2=O)C(=O)N1` (stereo partly drawn) [GS-307, 5-(((trans-3-(3-Cyclopropyl-4-(1H-imidazo[4,5-c]pyridin-6-yl)-1H-pyrazol-1-yl)cyclobutyl)methyl)amino)-2-(2,6-dioxopiperidin-3-yl)isoindoline-1,3-dione], the IC50 in assay [1] (setting [3]) lay in the range of 100 to 1000 nM; in assay [1] (setting [4]), 10 to 100 nM; in assay [2] (setting [5]), 100 to 1000 nM; in assay [2] (setting [6]), 10 to 100 nM.

As for `O=C1CCC(N2C(=O)c3ccc(NC[C@H]4C[C@H](n5cc(-c6ccc7c(n6)CCCC7)c(C6CC6)n5)C4)cc3C2=O)C(=O)N1` (stereo partly drawn) [GS-308, 5-(((trans-3-(3-Cyclopropyl-4-(5,6,7,8-tetrahydroquinolin-2-yl)-1H-pyrazol-1-yl)cyclobutyl)methyl)amino)-2-(2,6-dioxopiperidin-3-yl)isoindoline-1,3-dione], the IC50 was 10 to 100 nM in assay [1] (setting [3]), below 10 nM in assay [1] (setting [4]), 10 to 100 nM in assay [2] (setting [5]) and below 10 nM in assay [2] (setting [6]).

For `O=C1CCC(N2C(=O)c3ccc(NC[C@H]4C[C@H](n5cc(-c6nccc7nccnc67)c(C6CC6)n5)C4)cc3C2=O)C(=O)N1` (stereo partly drawn) [GS-309, 5-(((trans-3-(3-Cyclopropyl-4-(pyrido[3,4-b]pyrazin-5-yl)-1H-pyrazol-1-yl)cyclobutyl)methyl)amino)-2-(2,6-dioxopiperidin-3-yl)isoindoline-1,3-dione], the IC50 in assay [1] (setting [3]), in assay [1] (setting [4]), in assay [2] (setting [5]) and in assay [2] (setting [6]) was below 10 nM in each case.
